This passage reports IC50 results from patent US20210115018A1, “PIPERIDINE COMPOUNDS AS COVALENT MENIN INHIBITORS” (THE REGENTS OF THE UNIVERSITY OF MICHIGAN, priority 2018, published 2021).

Each structure is given as a SMILES string.

The subject of one experiment is MOLM13. Nature of the experiment: 7-day proliferation assay (WST-8), cell growth inhibition. Format: cell-based. The following applies: Homo sapiens, MOLM-13, 168 h, MOLM13 cells, 7 days. In outline: (§1)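 Cells seeded at 2,000-3,000/well were exposed to serially diluted compound for 7 days at 37° C., 5% CO2. Viability was read by WST-8 absorbance at 450 nm after 1-2 h color development; readings normalized to DMSO-treated cells, IC50 by four-parameter nonlinear regression.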
In general terms: Tetrazolium assays rely on reduction of a dye to a coloured formazan, in cell work by metabolically active cells.

For another experiment, the system named is MV4-11. Described as above. Format: cell-based. The following applies: Homo sapiens, MV4-11, 168 h, MV4-11 cells, 7 days. The gist of the method: as §1
The next experiment concerns the target T1, menin protein (Homo sapiens, UniProt O00255).
T1 sequence (O00255 1-610): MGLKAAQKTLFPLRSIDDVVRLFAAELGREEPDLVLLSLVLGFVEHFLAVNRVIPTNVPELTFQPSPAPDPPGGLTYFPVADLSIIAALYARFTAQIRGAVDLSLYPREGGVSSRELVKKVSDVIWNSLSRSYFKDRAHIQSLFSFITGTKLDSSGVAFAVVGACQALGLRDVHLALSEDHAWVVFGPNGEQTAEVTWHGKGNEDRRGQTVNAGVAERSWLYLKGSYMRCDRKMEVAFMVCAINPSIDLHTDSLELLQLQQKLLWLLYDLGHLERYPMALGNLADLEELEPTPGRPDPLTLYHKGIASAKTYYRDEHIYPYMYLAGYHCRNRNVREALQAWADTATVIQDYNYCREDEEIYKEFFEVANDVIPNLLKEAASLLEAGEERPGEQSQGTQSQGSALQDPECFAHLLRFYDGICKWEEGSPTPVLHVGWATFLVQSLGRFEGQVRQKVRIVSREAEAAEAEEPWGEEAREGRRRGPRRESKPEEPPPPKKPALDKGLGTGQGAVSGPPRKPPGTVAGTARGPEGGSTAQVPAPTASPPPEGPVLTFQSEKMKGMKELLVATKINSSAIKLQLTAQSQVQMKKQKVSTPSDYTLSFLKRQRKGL
Nature of the experiment: Fluorescence polarization (FP) competitive binding assay, menin binding affinity. The following applies: FP competition with FAM-MM2 probe 2 nM, menin 4 nM, 30 minutes room temperature. The gist of the method: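 Competitive FP with FAM-labeled MLL1 peptide probe FAM-MM2 (2 nM) and menin (4 nM) in PBS, 0.02% bovine γ-globulin, 4% DMSO, 0.01% Triton X-100. After 30 min at room temperature, mP read at 485/530 nm; IC50 from nonlinear regression against probe-only and complex-only controls.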
(Fluorescence polarisation rises when a labelled molecule tumbles more slowly, as on binding a larger partner.)

On to `COC(=O)N[C@H]1CCC[C@@H]1[C@](CN1CCC1)(c1cccc(F)c1)C1CCN(CC2CN(c3ccc(S(=O)(=O)C4CN(C(=O)/C=C/CN5CCC(C)(O)CC5)C4)cc3)C2)CC1` [compound 99], for which the concentration for half-maximal inhibition (IC50) (in general, the midpoint of a concentration-inhibition curve) in the experiment on MOLM13 was less than 100 nM; in the experiment with MV4-11 it was less than 10 nM; on menin protein, 9 nM.

On to `COC(=O)N[C@H]1CCC[C@@H]1[C@](CNC(C)=O)(c1cccc(F)c1)C1CCN(CC2CN(c3ccc(S(=O)(=O)C4CN(C(=O)/C=C/CN5CCCCC5)C4)c(CN4CC(F)C4)c3)C2)CC1` [compound 131], for which the figures for the IC50 in the experiment with MOLM13, in the experiment on MV4-11 and at menin protein were less than 10 nM, less than 10 nM and 2 nM, respectively.

For the molecule `C=CC(=O)N1CCCCC(S(=O)(=O)c2ccc(N3CC(F)(CN4CCC([C@@](CN5CCC5)(c5cccc(F)c5)[C@H]5CCC[C@@H]5NC(=O)OC)CC4)C3)cc2)C1` (stereo partly drawn) [compound 215], the IC50 was less than 10 nM with MOLM13, less than 10 nM in the experiment with MV4-11 and 1 nM at menin protein.

For the molecule `C=CC(=O)N1CCOC[C@@H](S(=O)(=O)c2ccc(N3CC(F)(CN4CCC([C@@](CN5CCC5)(c5cccc(F)c5)[C@H]5CCC[C@@H]5NC(=O)OC)CC4)C3)c(F)c2)C1` [compound 216], the IC50 with MOLM13 was less than 100 nM; in the experiment with MV4-11 it was less than 50 nM; at menin protein, 2 nM.

As to `C=CC(=O)N1CCOC[C@@H](S(=O)(=O)c2ccc(N3CC(C)(CN4CCC([C@@](CN5CCC5)(c5cccc(F)c5)[C@H]5CCC[C@@H]5NC(=O)OC)CC4)C3)c(F)c2)C1` [compound 217], the results for the IC50 with MOLM13, with MV4-11 and on menin protein were less than 100 nM, less than 10 nM and 2 nM, respectively.

As to `C=CC(=O)N1CCOC[C@@H](S(=O)(=O)c2ccc(N3CC(CN4CCC([C@@](CN5CCC5)(c5cccc(F)c5)[C@H]5CCC[C@@H]5NC(=O)OC)CC4)C3)c(F)c2)C1` [compound 218], the IC50 is less than 1000 nM with MOLM13, less than 50 nM in the experiment with MV4-11 and 2 nM at menin protein.

Take `C=CC(=O)N1CCC[C@@H](S(=O)(=O)c2ccc(N3CC(CN4CCC([C@@](CN5CCC5)(c5cccc(F)c5)[C@H]5CCC[C@@H]5NC(=O)OC)CC4)C3)c(F)c2)C1` [compound 219]: the IC50 in the experiment on MOLM13 was less than 10 nM; with MV4-11 it was less than 10 nM; at menin protein, 2 nM.

For the molecule `C=CC(=O)N1CCCC[C@@H](S(=O)(=O)c2ccc(N3CC(CN4CCC([C@@](CN5CCC5)(c5cccc(F)c5)[C@H]5CCC[C@@H]5NC(=O)OC)CC4)C3)cc2)C1` [compound 220], the values for the IC50 in the experiment on MOLM13, in the experiment with MV4-11 and on menin protein were less than 50 nM, less than 10 nM and 5 nM, respectively.

For the molecule `C=CC(=O)N1CCCC[C@@H](S(=O)(=O)c2ccc(N3CC(F)(CN4CCC([C@@](CN5CCC5)(c5cccc(F)c5)[C@H]5CCC[C@@H]5NC(=O)OC)CC4)C3)cc2)C1` [compound 221], the IC50 with MOLM13 was less than 50 nM; in the experiment on MV4-11, less than 50 nM; at menin protein it was 5 nM.

Take `C=CC(=O)N1CCCC[C@@H](S(=O)(=O)c2ccc(N3CC(C)(CN4CCC([C@@](CN5CCC5)(c5cccc(F)c5)[C@H]5CCC[C@@H]5NC(=O)OC)CC4)C3)cc2)C1` [compound 222]: the figures for the IC50 with MOLM13, with MV4-11 and on menin protein were less than 50 nM, less than 50 nM and 4 nM, respectively.

`C=CC(=O)N1CCCC[C@@H](S(=O)(=O)c2ccc(N3CC(CN4CCC([C@@](CN5CCC5)(c5cccc(F)c5)[C@H]5CCC[C@@H]5NC(=O)OC)CC4)C3)c(F)c2)C1` [compound 223]: the IC50 was less than 50 nM with MOLM13, less than 50 nM in the experiment on MV4-11 and 4 nM on menin protein.

As for `C=CC(=O)N1CCCC[C@@H](S(=O)(=O)c2ccc(N3CC(F)(CN4CCC([C@@](CN5CCC5)(c5cccc(F)c5)[C@H]5CCC[C@@H]5NC(=O)OC)CC4)C3)c(F)c2)C1` [compound 224], the IC50 with MOLM13 was less than 50 nM; in the experiment on MV4-11, less than 50 nM; on menin protein, 4 nM.

As for `C=CC(=O)N1CCCC[C@@H](S(=O)(=O)c2ccc(N3CC(C)(CN4CCC([C@@](CN5CCC5)(c5cccc(F)c5)[C@H]5CCC[C@@H]5NC(=O)OC)CC4)C3)c(F)c2)C1` [compound 225], the IC50 was less than 100 nM in the experiment with MOLM13, less than 100 nM in the experiment on MV4-11 and 7 nM at menin protein.

With `C=CC(=O)N1CCCC[C@@H](S(=O)(=O)c2ccc(N3CC(CN4CCC([C@@](CN5CCC5)(c5cccc(F)c5)[C@H]5CCC[C@@H]5NC(=O)OC)CC4)(OC)C3)cc2)C1` [compound 226], the values for the IC50 with MOLM13, in the experiment with MV4-11 and at menin protein were less than 50 nM, less than 50 nM and 3 nM, respectively.

Turning to `C=CC(=O)N1CCCC[C@@H](S(=O)(=O)c2ccc(N3CC(CN4CCC([C@@](CN5CCC5)(c5cccc(F)c5)[C@H]5CCC[C@@H]5NC(=O)OC)CC4)(OC)C3)c(F)c2)C1` [compound 227], the IC50 was less than 50 nM in the experiment on MOLM13, less than 50 nM in the experiment with MV4-11 and 7 nM at menin protein.

For `C=CC(=O)N1CCCC[C@@H](S(=O)(=O)c2ccc(N3CC(O)(CN4CCC([C@@](CN5CCC5)(c5cccc(F)c5)[C@H]5CCC[C@@H]5NC(=O)OC)CC4)C3)cc2)C1` [compound 228], the IC50 in the experiment on MOLM13 is less than 500 nM; in the experiment on MV4-11 it was less than 50 nM; on menin protein, 7 nM.

For the molecule `C=CC(=O)N1CCCC[C@@H](S(=O)(=O)c2ccc(N3CC(O)(CN4CCC([C@@](CN5CCC5)(c5cccc(F)c5)[C@H]5CCC[C@@H]5NC(=O)OC)CC4)C3)c(F)c2)C1` [compound 229], the values for the IC50 with MOLM13, in the experiment with MV4-11 and at menin protein were less than 500 nM, less than 100 nM and 8 nM, respectively.

Turning to `C=CC(=O)N1CCOC[C@@H](S(=O)(=O)c2ccc(N3CC(CN4CCC([C@@](CN5CCC5)(c5cccc(F)c5)[C@H]5CCC[C@@H]5NC(=O)OC)CC4)(OC)C3)c(F)c2)C1` [compound 230], the concentration for half-maximal inhibition (IC50) in the experiment with MOLM13 was less than 50 nM; in the experiment with MV4-11, less than 50 nM; on menin protein it was 5 nM.

Turning to `CC#CC(=O)N1CCCC[C@@H](S(=O)(=O)c2ccc(N3CC(F)(CN4CCC([C@@](CN5CCC5)(c5cccc(F)c5)[C@H]5CCC[C@@H]5NC(=O)OC)CC4)C3)cc2)C1` [compound 231], the figures for the IC50 in the experiment with MOLM13, in the experiment with MV4-11 and at menin protein were less than 500 nM, less than 500 nM and 4 nM, respectively.

Consider `CC#CC(=O)N1CCCC[C@@H](S(=O)(=O)c2ccc(N3CC(CN4CCC([C@@](CN5CCC5)(c5cccc(F)c5)[C@H]5CCC[C@@H]5NC(=O)OC)CC4)(OC)C3)c(F)c2)C1` [compound 232], for which the results for the IC50 in the experiment on MOLM13, with MV4-11 and at menin protein were less than 500 nM, less than 100 nM and 3 nM, respectively.

On to `C/C=C/S(=O)(=O)N1CCCC[C@@H](S(=O)(=O)c2ccc(N3CC(F)(CN4CCC([C@@](CN5CCC5)(c5cccc(F)c5)[C@H]5CCC[C@@H]5NC(=O)OC)CC4)C3)cc2)C1` [compound 233], for which the results for the IC50 in the experiment on MOLM13, in the experiment with MV4-11 and at menin protein were less than 500 nM, less than 100 nM and 3 nM, respectively.
